# Reference: patent US20240252638A1, “INDUCER FOR REPROGRAMMING T CELL INTO NK-LIKE CELL AND APPLICATION OF INDUCER” (ZHAOTAI IMMUGENE BIOMEDICINE (HONG KONG) LIMITED, priority 2021, published 2024)
# Assays:
# [1] = tested on: primary T cells in human umbilical cord blood; test: Detection of phenotypes of reprogrammed T cells through flow cytometry (NKp30/NKp46 expression); assay type: cell-based; conditions: for expression of NKp46 and NKp30 in CD4 and CD8 among induced T cells compared with DMSO: induced by a single inhibitor until Day5; for expression of NKp46 and NKp30 in CD4 and CD8 among induced T cells compared with DMSO / induction of T cells to reprogram into NK-like cells: concentrations of Table 1; for induction of T cells to reprogram into NK-like cells: induced until Day5; for expression rate of NKp30 in CD4 T cells: drug concentrations of Table 1 (DAC 0.2 μM, GSK-3484862 2 μM, Mocetinostat 0.2 μM), DMSO group approximately 7.74%; for expression rate of NKp46 in CD8 T cells: DMSO group approximately 0.26%; for expression rate of NKp30 in CD8 T cells: DMSO group approximately 12.2%
# Source text: In this example, umbilical cord blood mononuclear cells (UCBMCs) were separated from the umbilical cord blood through Ficoll-hypaque (polysucrose-meglumine diatrizoate) density gradient centrifugation, 4×10^7 CD3 positive UCBMCs were taken and cultured overnight with a cell density of 2×10^6 cells/mL, remaining UCBMCs were frozen, and T cells were sorted by the Pan T cell isolation kit and cultured for a period of time to obtain ≥4×10^7 CD3 positive T cells with a viability rate of ≥70% and without contamination by exogenous microorganisms such as bacteria, fungi and mycoplasmas.
# (1) T cells activated by TransAct for 36 h were taken and centrifuged at 300 g for 5 min, the T cells were resuspended with an IMDM+5% FBS+1% double antibody (a 100×penicillin-streptomycin mixed solution)+IL2 (300 U), and a T cell density was adjusted to (2−3)×10^5 cells/mL.
# (2) Groups of small molecule inhibitor drugs were added to the resuspended T cells, respectively. Half of media were changed every day, and extra new drugs were added according to volumes obtained after the media were changed. A day when the drugs were initially added was denoted as Day0, and when the drugs continued to be added until Day5, the mixtures were centrifuged at 300 g for 5 min, and the media were changed. Then, the cells continued to be cultured with an IMDM+5% FBS+1% double antibody (a 100×penicillin-streptomycin mixed solution).
# (1) 200 μL each of the T cells induced by DAC until Day6, the T cells induced by GSK-3484862 until Day 6, the T cells co-induced by DAC and Mocetinostat until Day6, the T cells co-induced by GSK-3484862 and Mocetinostat until Day6 and the untreated T cells were taken and centrifuged at 400 g for 4 min. After supernatant was discarded, 50 μL phosphate buffer (PBS) was added to resuspend the cells. Then, 0.5 μL each of CD3 PE-Cy7, CD4 APC-Cy7, CD8 FITC, NKp30 PE and NKp46 APC were added to each of the mixtures and incubated for 30 min at 4° C. in the dark, 500 μL PBS was added to dilute the antibody and centrifuged at 400 g for 4 min, supernatant was carefully discarded, and 300 μL PBS was added to resuspend the cells, transferred to a flow tube and loaded on a flow cytometer.
# (2) Data analysis was performed by BD-flowcyto analysis software, and 10000 cells were collected in each tube. The appearance of a significant increase in NKp-30 and the appearance of an NKp46-positive cell population were used as signs of successful reprogramming, and a percentage of positive T cells was calculated.
# In addition, the T cells induced by GSK-3484862 until Day5, the T cells induced by Tazemetostat until Day5, the T cells induced by GSK126 until Day5, the T cells co-induced by Tazemetostat and GSK-3484862 until Day5, the T cells co-induced by GSK-3484862 and GSK126 until Day5 and the untreated T cells were taken and subjected to the same operations, and phenotypes of the reprogrammed T cells were identified through flow cytometry. The results are shown in FIGS. 9A, 9B, 10A, 10B, 11A, 11B, 12A, 12B, 13A, 13B, 14A and 14B.
# [2] = tested on: K562 cells (human chronic myeloid leukemia cells); test: In vitro killing detection of reprogrammed T cells (luciferase); assay type: cell-based; conditions: effector-target ratios 16:1 to 1:4, co-cultured 24 h, vs T cells treated by DMSO
# Source text: (1) The T cells induced by GSK-3484862, the T cells induced by DAC, the T cells induced by Mocetinostat, the T cells co-induced by GSK-3484862 and Mocetinostat, the T cells co-induced by DAC and Mocetinostat and the T cells treated by DMSO were mixed with 1×10^4 K562 cells (human chronic myeloid leukemia cells) according to different effector-target ratios (16:1, 8:1, 4:1, 2:1, 1:1, 1:2 and 1:4), respectively, and added to a 96-well cell culture plate. Three duplicate wells were set for each group, and a group with the addition of tumor cells alone was set as a positive control. After centrifugation at 250×g for 5 min, the cells were placed in a 5% CO2 incubator at 37° C. and co-cultured for 24 h.
# (2) After 24 h, 100 μL/well luciferase substrate (1×) was added to the 96-well cell culture plate, and the cells were resuspended and uniformly mixed. RLU (Relative light units) were immediately measured by a multifunctional microplate reader for 0.1 s. A killing proportion calculation formula of a quantitative killing efficiency assessment method using a luciferase is as follows:
# 100%×(control well reading-experimental well reading)/control well reading (blank group (without the addition of the cells) reading may be ignored).
# In addition, according to the same method, the T cells induced by GSK-3484862, the T cells induced by Tazemetostat, the T cells induced by GSK126, the T cells co-induced by GSK-3484862 and Tazemetostat and the T cells co-induced by GSK-3484862 and GSK-126 were separately used and the T cells treated by DMSO was used as a control to detect killing abilities of the reprogrammed T cells against K562 cells.
# [3] = tested on: reprogrammed T cells co-cultured with K562; test: Secretion of cytokines IFN-γ and granzyme B by reprogrammed T cells co-cultured with K562 (ELISA); assay type: cell-based, human; conditions: co-cultured with K562 for 48 h, supernatant
# Protocol: The T cells induced by DAC, the T cells induced by GSK-3484862, the T cells co-induced by DAC and Mocetinostat, the T cells co-induced by GSK-3484862 and Mocetinostat and the T cells treated by DMSO were co-cultured with human chronic myeloid leukemia cells K562 for 48 h, respectively, and expression levels of cytokines IFN-γ and a granzyme B in supernatant were detected through ELISA.
# [4] = T cells induced until Day6, drug concentrations of Table 1
Structure (SMILES),expression of NKp46 and NKp30 in CD4 and CD8 among induced T cells compared with DMSO [1],induction of T cells to reprogram into NK-like cells [1],in vitro killing of K562 by induced T cells [2],"expression rate of NKp46 in CD4 T cells [1, 4]",expression rate of NKp30 in CD4 T cells ([1]; T cells induced until Day6),"expression rate of NKp46 in CD8 T cells [1, 4]","expression rate of NKp30 in CD8 T cells [1, 4]",IFN-γ and granzyme B secreted by induced T cells (immune effect) [3]
CC[C@H](C)n1cc(C)c2c(C(=O)NCc3c(C)cc(C)[nH]c3=O)cc(-c3ccc(N4CCNCC4)nc3)cc21 [GSK126],significantly expressed,can induce the T cells to reprogram into NK-like cells,effectively kill,–,–,–,–,–
CCc1c(C#N)c(SC(C(N)=O)c2ccccc2)nc(N(C)C)c1C#N (stereo not drawn) [GSK-3484862],significantly expressed,can induce the T cells to reprogram into NK-like cells,effectively kill,approximately 5.16%,approximately 81.4%,approximately 21.4%,approximately 50.8%,produce an immune effect
"Nc1ncn([C@H]2C[C@H](O)[C@@H](CO)O2)c(=O)n1 [DAC, decitabine]",–,–,–,–,approximately 83.2%,approximately 11.2%,approximately 60.5%,–
Nc1ccccc1NC(=O)c1ccc(CNc2nccc(-c3cccnc3)n2)cc1 [Mocetinostat],–,–,effectively kill,–,–,–,–,–
